Data as given in US5716627A, “Skin care compositions containing fatty acid amides, azoles, and retinol or retinyl ester” (Elizabeth Arden Co., Division of Conopco, Inc., priority 1996, dated 1998).

Legend:
Human keratinocytes = assay: 3H-thymidine incorporation by cultured keratinocytes (keratinocyte proliferation); format: cell-based
Experimental: Human keratinocytes, isolated from neonatal foreskin by trypsin treatment were grown in Dulbecco Modification Eagle (DME) Hams F12 (1:1) medium/10% fetal calf serum in the presence of irradiated 3T3 mouse fibroblasts for establishing dividing keratinocyte colonies. Cells were grown under the above condition until their second passage and kept frozen for future use. […] On day 7, when the cells were 80-90% confluent, they were trypsinized and plated in the serum-free medium for the various experiments.
The incorporation of ^3 H-thymidine by cultured keratinocytes was used as an assay of keratinocyte proliferation. Thymidine is one of four deoxynucleosides which are the monomeric units of DNA, the universal library of genetic information in the animal kingdom. Prior to cell division of a somatic cell such as a keratinocyte, the complete genome of the cell undergoing cell division is replicated. This involves large scale DNA synthesis by the cell and enables both daughter cells to receive identical copies of the genetic material. When ^3 H-thymidine is included in the culture media of keratinocytes which are synthesizing DNA in preparation for cell division then the labelled nucleoside is incorporated into the newly synthesized DNA. The extent of incorporation of ^3 H-thymidine into a population of cells is proportional to the rate of DNA synthesis by this population of cells and therefore an indication of their cellular proliferation.
Keratinocytes (that were cultured as described above) were plated in 24 well plates at a density of 40,000 cells per well in 1 ml media. After incubation for four days or until the cells were 60-70% confluent, the media was changed. Test compounds were added (in triplicate) to the wells 24 hours after the media change, and four hours later 1 μCi ^3 H-Thymidine in 50 μl media was added per well. Cells were incubated for a further 24 hours. Media was removed from the cells, 10% ice cold trichloroacetic acid (TCA) added and plates were incubated on ice for 30 minutes. Cells were washed five times with 5% TCA and allowed to dissolve in 500 μl 0.1M NaOH for at least one hour (usually overnight). The preparations were neutralized with 0.1M HCl; 50 μl of the cell preparation was used to determine total protein content. Disintegrations per minute (DPM) from ^3 H labelling of DNA was determined by liquid scintillation counting of 900 μl of the cell preparation. Thymidine incorporation results were expressed as DPM/μg protein.

TGase I = assay: Transglutaminase (TGase I) ELISA in cultured keratinocytes, normalized to DNA content (keratinocyte differentiation); format: cell-based, human; details: for Mean TGase/DNA X 10^-4 ± S.D.: n = 3
Experimental: Human keratinocytes, isolated from neonatal foreskin by trypsin treatment were grown in Dulbecco Modification Eagle (DME) Hams F12 (1:1) medium/10% fetal calf serum in the presence of irradiated 3T3 mouse fibroblasts for establishing dividing keratinocyte colonies. Cells were grown under the above condition until their second passage and kept frozen for future use. Frozen second passage keratinocytes were thawed and plated into the above medium and grown for five days before they were switched to a serum-free MCDB 153-based medium keratinocyte growth medium (KGM) from Clonetics Corporation, San Diego, Calif., containing 0.15 mM Ca, or keratinocyte serum-free media (KSFM) from GIBCO containing 0.09 mM Ca). On day 7, when the cells were 80-90% confluent, they were trypsinized and plated in the serum-free medium for the various experiments.
During the process of terminal differentiation in the epidermis, a 15 nm thick layer of protein, known as the cornified envelope (CE) is formed on the inner surface of the cell periphery. The CE is composed of numerous distinct proteins which have been cross-linked together by the formation of N^ε -(γ-glutamyl) lysine isodipeptide bonds catalyzed by the action of at least two different transglutaminases (TGases) expressed in the epidermis. TGase I is expressed in abundance in the differentiated layers of the epidermis, especially the granular layer, but is absent in the undifferentiated basal epidermis. Thus TGase I is a useful marker of epidermal keratinocyte differentiation with high TGase I levels indicating a more differentiated state. An ELISA based TGase I assay, using a TGase I antibody, was used to assess the state of differentiation of the cultured keratinocytes in the examples that follow.
Keratinocytes (cultured as described above) were plated in 96 well plates at a density of 3,000 cells per well in 200 μl media. After incubation for four days the media was changed to media containing test compounds (six replicates per test). The cells were cultured for a further 72 hours after which time the media was aspirated and the plates stored at -70° C. Plates were removed from the freezer, and the cells washed with PBS. 100 μl sterile water was added and the cells were freeze fractured by freezing at -70° C. then thawing. The cells were incubated for one hour at room temperature (R/T) with PBS/3% BSA (wash buffer, bovine serum albumin), then rinsed with a fresh aliquot of wash buffer. Cells were incubated with 50 μl of primary antibodies monoclonal anti-human transglutaminase (IgG) obtained from Amersham (mouse) diluted 1:300 in wash buffer for one hour, 37° C. then rinsed two times with wash buffer. Cells were then incubated with 50 μl of secondary antibody (Feb fragment, peroxidase conjugated anti-mouse IgG obtained from Amersham) diluted 1:200 in wash buffer for one hour at 37° C., then rinsed two times with wash buffer. Cells were incubated with substrate solution (4 mg o-phenylene diamine and 3.3 μl 30% H2 O2 in 10 ml 0.1M citrate buffer pH 5.0) for five minutes, R/T, in darkness (under aluminum foil). The reaction was stopped by the addition of 50 μl 4N H2 SO4. The absorbance of samples was read at 492 nm in the plate reader. Out of the six replicates, four were treated with both antibodies, two were treated only with the secondary antibody (i.e., to determine background binding of enzyme conjugated Ab). TGase levels were determined by subtracting background from the readings from each treatment and determining mean ±s.d. for the replicates exposed to both Ab.
The level of TGase-1 detected after treatment of the cells could be influenced by cell number, i.e., the greater the number of cells the greater the level of TGase-1 detected. The level of TGase-1 was normalized to DNA content of the cells in the same well thus eliminating variation due to differences in cell number. […]

[1] = Examples 1-4, overall conclusion

effect on transglutaminase level / keratinocyte differentiation (in words) (TGase I; Example 1, 2.5×10^-7 M, 2.5×10^-8 M and 2.5×10^-9 M): dose dependent
TGase/DNA (% Control) (TGase I; Table 1B, 2.5 × 10^-7 M, 72 hours, 0.25 µM): 47%
Mean TGase/DNA X 10^-4 ± S.D. (TGase I; Table 1B, 2.5 × 10^-7 M, 72 hours): 1.14 ± 0.22 X 10^-4
TGase/DNA (% Control) (TGase I; Table 1B, 2.5 × 10^-8 M, 72 hours, 0.025 µM): 77%
Mean TGase/DNA X 10^-4 ± S.D. (TGase I; Table 1B, 2.5 × 10^-8 M, 72 hours): 1.89 ± 0.30 X 10^-4
TGase/DNA (% Control) (TGase I; Table 1B, 2.5 × 10^-9 M, 72 hours, 0.0025 µM): > 100%
Mean TGase/DNA X 10^-4 ± S.D. (TGase I; Table 1B, 2.5 × 10^-9 M, 72 hours): 2.70 ± 0.59 X 10^-4
TGase/DNA (% Control) (TGase I; Table 2B and Example 2B text, 2.5×10^-8 M RA or retinol, 10^-8 M LAMEA, 10^-8 M bifonazole where named, 72 hour): 84%
mean TGase/DNA × 10^-4 ± s.d (TGase I; Table 2B, 2.5 × 10^8 M [sic] RA or ROH, 10^8 M LA-MEA, 10^8 M Bifonazole where named, 72 hour, n = 6): 0.111 ± 0.023 × 10^-4
TGase/DNA (% Control) (TGase I; Table 3B and Example 3B, 2.5×10^-9 M RA or ROH, with 10^-8 M LADEA and/or 10^-8 M climbazole where named, 72 hour): 129%
mean TGase/DNA × 10^4 ± s.d (TGase I; Table 3B, 2.5 × 10^9 M [sic] RA or ROH, with 10^8 M LA-DEA and/or 10^8 M Climbazole where named, 72 hour, n = 6): 1.96 ± 0.33 × 10^4
Structure (SMILES): CC1=C(/C=C/C(C)=C/C=C/C(C)=C/CO)C(C)(C)CCC1 [ROH, retinol]
effect on keratinocyte proliferation (in words) (Human keratinocytes; [1]): completely ineffective at increasing keratinocyte proliferation
Thymidine incorporation (% control) (Human keratinocytes; Table 1A, 2.5 × 10^-7 M, 24 hours, 0.25 µM): 106%
mean Thymidine incorp./μg protein ± s.d (Human keratinocytes; Table 1A, 2.5 × 10^-7 M, 24 hours, n = 3): 2218 ± 73 DPM/μg protein
Thymidine incorporation (% control) (Human keratinocytes; Table 1A, 2.5 × 10^-8 M, 24 hours, 0.025 µM): 97%
mean Thymidine incorp./μg protein ± s.d (Human keratinocytes; Table 1A, 2.5 × 10^-8 M, 24 hours, n = 3): 2034 ± 46 DPM/μg protein
Thymidine incorporation (% control) (Human keratinocytes; Table 1A, 2.5 × 10^-9 M, 24 hours, 0.0025 µM): 94%
mean Thymidine incorp./μg protein ± s.d (Human keratinocytes; Table 1A, 2.5 × 10^-9 M, 24 hours, n = 3): 1977 ± 19 DPM/μg protein
Thymidine incorporation (% control) (Human keratinocytes; Table 2A, 2.5 × 10^-9 M RA or ROH, with 10^-8 M LADEA and/or 10^-9 M Bifonazole where named, 24 hours): 111%
mean Thymidine incorp. μg protein ± s.d (Human keratinocytes; Table 2A, 2.5 × 10^-9 M RA or ROH, with 10^-8 M LADEA and/or 10^-9 M Bifonazole where named, 24 hours, n = 3): 4856 ± 217 DPM/μg protein
Thymidine incorporation (% control) (Human keratinocytes; Table 3A, 2.5 × 10^8 M [sic] ROH, with 10^8 M LADEA and/or 10^9 M Climbazole where named, 1440 min): 102%
mean Thymidine incorp/μg protein ± s.d (Human keratinocytes; Table 3A, 2.5 × 10^8 M [sic] ROH, with 10^8 M LADEA and/or 10^9 M Climbazole where named, n = 3): 3788 ± 57 DPM/μg protein
Thymidine incorporation (% control) (Human keratinocytes; Table 4, 2.5 × 10^9 M [sic] RA or ROH, with 10^8 M LAMEA and/or 10^8 M Clotrimazole where named, 24 hours): 113%
mean Thymidine incorp/μg protein ± s.d, normalized to control (Human keratinocytes; Table 4, 2.5 × 10^9 M [sic] RA or ROH, with 10^8 M LAMEA and/or 10^8 M Clotrimazole where named, 24 hours, n = 3): 1.13 ± 0.09
effect on keratinocyte TG1 level / differentiation (in words) (TGase I; Example 2, 2.5×10^-8 M RA or retinol, 10^-8 M LAMEA, 10^-8 M bifonazole, 72 hour): Neither 2.5×10^-8 M retinol nor 10^-8 M LAMEA+10^-8 M bifonazole had an inhibitory effect on the keratinocyte TG1 level
effect on keratinocyte TG1 level / differentiation (in words) (TGase I; Example 3, 2.5×10^-7 M RA, 2.5×10^-9 M retinol with 10^-8 M LADEA and/or climbazole, 72 hour): no inhibitory effect on the keratinocyte TG1 level
effect on keratinocyte differentiation (in words) (TGase I; [1]): significantly less effective than retinoic acid at inhibiting keratinocyte differentiation
